SMILES strings stand for the structures. pIC50: −log10 of the molar value. Where only a bound is given, the exact number is not on record here.

Results on 17 compounds are retold here after ChEMBL document CHEMBL4732050, “1,2,4-Oxadiazole topsentin analogs as staphylococcal biofilm inhibitors targeting the bacterial transpeptidase sortase A” (Eur J Med Chem, 2021).

The test system of series [1] is Staphylococcus aureus. The experiment in a line: Antibacterial activity against Staphylococcus aureus ATCC 25923 after 24 hrs by microdilution method. Format: functional.
Series [2] has as its system Staphylococcus aureus. The experiment in a line: Antibacterial activity against Staphylococcus aureus ATCC 6538 after 24 hrs by microdilution method. It counts as functional.
The test system of series [3] is Pseudomonas aeruginosa. The series is described as follows: Antibacterial activity against Pseudomonas aeruginosa ATCC 15442 after 24 hrs by microdilution method. Format: functional.
The test system of series [4] is Escherichia coli. The experiment in a line: Antibacterial activity against Escherichia coli ATCC 25922 after 24 hrs by microdilution method. Format: functional.
Series [5] relates to Staphylococcus aureus. The series is described as follows: Antibiofilm activity against Staphylococcus aureus ATCC 25923 after 24 hrs by crystal violet staining based assay. It counts as functional.
Series [6] has as its system Staphylococcus aureus. The experiment in a line: Antibiofilm activity against Staphylococcus aureus ATCC 6538 at 100 ug/ml after 24 hrs by crystal violet staining based assay. It counts as functional.
In series [7] the test system is Pseudomonas aeruginosa. The series is described as follows: Antibiofilm activity against Pseudomonas aeruginosa ATCC 15442 after 24 hrs by crystal violet staining based assay. Format: functional.
The subject of series [8] is Escherichia coli. The series is described as follows: Antibiofilm activity against Escherichia coli ATCC 25922 at 100 ug/ml after 24 hrs by crystal violet staining based assay. Format: functional.
Series [9] can be described thus: Inhibition of Staphylococcus aureus ATCC 25923 sortase A by FRET assay.
The test system of series [10] is HS27. The series is described as follows: Cytotoxicity against human Hs27 cells assessed as cell viability at 0.1 to 1 uM after 72 hrs by SRB assay. Format: cell-based. Conditions: hs27, 72 h, dose 0.1-1 µM.
In series [11] the test system is Escherichia coli. The experiment in a line: Antibiofilm activity against Escherichia coli ATCC 25922 after 24 hrs by crystal violet staining based assay. It counts as functional.
The subject of series [12] is Staphylococcus aureus. The experiment in a line: Antibiofilm activity against Staphylococcus aureus ATCC 25923 at 100 ug/ml after 24 hrs by crystal violet staining based assay. It counts as functional.
The subject of series [13] is Staphylococcus aureus. The series is described as follows: Antibiofilm activity against Staphylococcus aureus ATCC 6538 after 24 hrs by crystal violet staining based assay. Format: functional.
Series [14] concerns Pseudomonas aeruginosa. The experiment in a line: Antibiofilm activity against Pseudomonas aeruginosa ATCC 15442 at 100 ug/ml after 24 hrs by crystal violet staining based assay. Format: functional.

As for `Cn1cc(C(=O)c2nc(-c3cn(C)c4ccc(F)cc34)no2)c2cc(F)ccc21`, the MIC in series [1], in [2], in series [3] and in series [4] was > 100 µg/mL throughout. The MBIC50 in [5] amounted to 0.7 µM; in series [7], 49.7 µM. Also, the inhibition at 100 µg/mL in series [6] and in series [8] was < 15% each time. In addition, in [9], the pIC50 is 4.98. Also, the Activity entry in series [10] was “Non-Toxic”.

For the compound `Cn1cc(C(=O)c2nc(-c3cn(C)c4ccc(Cl)cc34)no2)c2cc(Br)ccc21`, the MIC in series [1], in series [2], in series [3] and in [4] was > 100 µg/mL in each case. The MBIC50 in series [5] was 27.7 µM; in [7] it was 53.9 µM. The inhibition at 100 µg/mL in series [6] and in series [8] was < 15% throughout.

On to `COc1ccc2c(c1)c(-c1noc(C(=O)c3cn(C)c4ccc(Br)cc34)n1)cn2C`, for which the MIC in series [1], in series [2], in series [3] and in series [4] was > 100 µg/mL each time. Besides, the MBIC50 in [5] was 19.1 µM; in series [7], 28.1 µM. Further, the inhibition at 100 µg/mL in [6] and in series [8] was < 15% each time.

In the case of `Cn1cc(C(=O)c2nc(-c3cn(C)c4ccccc34)no2)c2cc(Br)ccc21`, the MIC in series [1], in series [2], in [3] and in [4] was > 100 µg/mL each time. Moreover, the values for the MBIC50 in series [5], in series [7] and in series [11] were 39.5 µM, 39.3 µM and 39.3 µM, respectively. For the same compound, in series [6], the inhibition at 100 µg/mL was < 15%.

Take `Cn1cc(C(=O)c2nc(-c3cn(C)c4ccc(Br)cc34)no2)c2ccccc21`: the MIC in series [1], in [2], in [3] and in series [4] was > 100 µg/mL in each case. Also, the inhibition at 100 µg/mL in [12], in series [6] and in series [8] was < 15% in each case. Moreover, the MBIC50 in [7] turned out to be 78.6 µM.

In the case of `Cn1cc(C(=O)c2nc(-c3cn(C)c4ccccc34)no2)c2ccccc21`, the MIC in [1], in series [2], in [3] and in series [4] was > 100 µg/mL each time. In addition, the MBIC50 in [5] was found to be 14 µM; in [13], 53.6 µM; in series [7] it was 36.7 µM; in series [11] it was 72.1 µM.

For `COc1ccc2c(c1)c(C(=O)c1nc(-c3cn(C)c4ccc(Br)cc34)no1)cn2C`, the MIC in series [1], in series [2], in series [3] and in series [4] was > 100 µg/mL throughout. Also, the MBIC50 in series [5] amounted to 41 µM. Also, the inhibition at 100 µg/mL in [6], in series [14] and in series [8] was < 15% in each case.

As for `COc1ccc2c(c1)c(C(=O)c1nc(-c3cn(C)c4ccc(F)cc34)no1)cn2C`, the MIC in [1], in series [2], in series [3] and in [4] was > 100 µg/mL in each case. Besides, the MBIC50 is 39.6 µM in series [5] and 11.6 µM in series [7]. The inhibition at 100 µg/mL in series [6] and in series [8] was < 15% in each case.

As to `Cn1cc(C(=O)c2nc(-c3cn(C)c4ccc(Br)cc34)no2)c2cc(F)ccc21`, the MIC in series [1], in [2], in [3] and in [4] was > 100 µg/mL throughout. The compound also gave an MBIC50 in series [5] of 9.7 µM. Moreover, the inhibition at 100 µg/mL in series [6], in series [14] and in series [8] was < 15% each time. In addition, the pIC50 in series [9] was 5.66. For the same compound, the Activity result in series [10] is given as “Non-Toxic”.

As to `COc1ccc2c(c1)c(C(=O)c1nc(-c3cn(C)c4ccc(OC)cc34)no1)cn2C`, the MIC in series [1], in series [2], in series [3] and in [4] was > 100 µg/mL in each case. For the same compound, the MBIC50 in series [5] was determined as 2.2 µM; in [7] it was 74.7 µM. The inhibition at 100 µg/mL in series [6] and in series [8] was < 15% throughout. In series [9], this compound showed a pIC50 of 5.66. In [10], the Activity entry is recorded as “Non-Toxic”.

In the case of `COc1ccc2c(c1)c(C(=O)c1nc(-c3cn(C)c4ccccc34)no1)cn2C`, the MIC in [1], in [2], in series [3] and in series [4] was > 100 µg/mL throughout. The MBIC50 in series [5] turned out to be 33.1 µM; in series [7], 30 µM; in series [11], 55.4 µM. Moreover, the inhibition at 100 µg/mL in series [6] is < 15%.

For `Cn1cc(C(=O)c2nc(-c3cn(C)c4ccc(F)cc34)no2)c2cc(Br)ccc21`, the MIC in series [1], in [2], in series [3] and in series [4] was > 100 µg/mL in each case. In addition, the MBIC50 in [5] was 29.6 µM; in [11], 45.7 µM. Besides, the inhibition at 100 µg/mL in series [6] and in [14] was < 15% in each case.

`COc1ccc2c(c1)c(-c1noc(C(=O)c3cn(C)c4ccccc34)n1)cn2C`: the MIC in series [1], in series [2], in series [3] and in series [4] was > 100 µg/mL each time. Further, the inhibition at 100 µg/mL in series [12], in series [6] and in series [8] was < 15% each time. This compound showed an MBIC50 in series [7] of 47.4 µM.

Turning to `COc1ccc2c(c1)c(-c1noc(C(=O)c3cn(C)c4ccc(F)cc34)n1)cn2C`, the MIC in [1], in [2], in [3] and in series [4] was > 100 µg/mL each time. Besides, the MBIC50 came out at 14.8 µM in [5] and 52.1 µM in [7]. For the same compound, the inhibition at 100 µg/mL in [6] and in [8] was < 15% throughout.

For the compound `Cn1cc(C(=O)c2nc(-c3cn(C)c4ccc(F)cc34)no2)c2ccccc21`, the MIC in [1], in series [2], in series [3] and in series [4] was > 100 µg/mL throughout. The MBIC50 in series [5] stood at 30.4 µM; in series [7], 24 µM. Besides, the inhibition at 100 µg/mL in series [6] and in series [8] was < 15% in each case.

As to `Cn1cc(C(=O)c2nc(-c3cn(C)c4ccc(Cl)cc34)no2)c2ccccc21`, the MIC in [1], in [2], in [3] and in series [4] was > 100 µg/mL in each case. Moreover, the MBIC50 in series [5] was 47.6 µM; in series [7] it was 53.5 µM; in series [11], 59.6 µM. Besides, the inhibition at 100 µg/mL in series [6] is < 15%.

Turning to `COc1ccc2c(c1)c(C(=O)c1nc(-c3cn(C)c4ccc(Cl)cc34)no1)cn2C`, the MIC in series [1], in [2], in series [3] and in series [4] was > 100 µg/mL each time. Further, the inhibition at 100 µg/mL in series [12], in series [6], in [14] and in [8] was < 15% throughout.
